Measured values reported in ChEMBL document CHEMBL3885861, “Open TG-GATES”.

Organism: Rattus norvegicus
Assay: Open TG-GATES - Regimen: Single
Assay type: toxicity, organism-based, Sprague-Dawley
Design: regimen Single, gender Male, age 6 weeks
Conditions: in vivo, po, 500 mg/kg, route gavage, dose level High; for APTT / Bas / Eos / Fbg / Hb / Ht / Lym / MCH / MCHC / MCV / Mono / Neu / PT / Plat / RBC / Ret / WBC: tissue Blood; for KIDNEY_L / KIDNEY_R / KIDNEY_TOTAL: tissue Kidney; for LIVER: tissue Liver; for A/G / ALP / ALT / AST / BUN / CRE / Ca / Cl / DBIL / GLC / IP / K / LDH / Na / PL / RALB / TBIL / TC / TG / TP / gamma-GTP: tissue Plasma

CC(=O)Oc1cc(C(C)C)c(OCCN(C)C)cc1C [MOXISYLYTE]
TERMINAL_BW (3 h): 212.3 g | APTT (3 h): 21.6 s | Bas (3 h): 0% | Eos (3 h): 1.2% | Fbg (3 h): 311.2 mg/dL | Hb (3 h): 12.6 g/dL | Ht (3 h): 37.4% | Lym (3 h): 72.6% | MCH (3 h): 21.4 pg | MCHC (3 h): 33.7% | MCV (3 h): 63.2 fL | Mono (3 h): 2% | Neu (3 h): 23.6% | PT (3 h): 16 s | Plat (3 h): 115.9 x10_4/uL | RBC (3 h): 590.6 x10_4/ul | Ret (3 h): 8.3% | WBC (3 h): 64.3 x10_2/uL | KIDNEY_L (3 h): 0.9 g | KIDNEY_R (3 h): 1 g | KIDNEY_TOTAL (3 h): 1.9 g | LIVER (3 h): 9.7 g | A/G (3 h): 1.4 | ALP (3 h): 1326.8 IU/L | ALT (3 h): 43 IU/L | AST (3 h): 81.6 IU/L | BUN (3 h): 14.6 mg/dL | CRE (3 h): 0.1 mg/dL | Ca (3 h): 10.6 mg/dL | Cl (3 h): 107.8 meq/L | DBIL (3 h): 0.014 mg/dL | GLC (3 h): 196.8 mg/dL | IP (3 h): 10.3 mg/dL | K (3 h): 4.5 meq/L | LDH (3 h): 251 IU/L | Na (3 h): 142.2 meq/L | PL (3 h): 132.2 mg/dL | RALB (3 h): 3.1 g/dL | TBIL (3 h): 0.028 mg/dL | TC (3 h): 79 mg/dL | TG (3 h): 33.8 mg/dL | TP (3 h): 5.5 g/dL | gamma-GTP (3 h): 1 IU/L | TERMINAL_BW (6 h): 211.5 g | APTT (6 h): 21.2 s | Bas (6 h): 0% | Eos (6 h): 1% | Fbg (6 h): 318.6 mg/dL | Hb (6 h): 13 g/dL | Ht (6 h): 38% | Lym (6 h): 77% | MCH (6 h): 21.2 pg | MCHC (6 h): 34.1% | MCV (6 h): 62.1 fL | Mono (6 h): 2.2% | Neu (6 h): 19.2% | PT (6 h): 15.6 s | Plat (6 h): 119.7 x10_4/uL | RBC (6 h): 611.8 x10_4/ul | Ret (6 h): 8.1% | WBC (6 h): 63.2 x10_2/uL | KIDNEY_L (6 h): 1 g | KIDNEY_R (6 h): 1 g | KIDNEY_TOTAL (6 h): 2 g | LIVER (6 h): 9.8 g | A/G (6 h): 1.3 | ALP (6 h): 1572.4 IU/L | ALT (6 h): 40.6 IU/L | AST (6 h): 75.2 IU/L | BUN (6 h): 11.8 mg/dL | CRE (6 h): 0.1 mg/dL | Ca (6 h): 10.5 mg/dL | Cl (6 h): 107.8 meq/L | DBIL (6 h): 0.014 mg/dL | GLC (6 h): 194.2 mg/dL | IP (6 h): 10 mg/dL | K (6 h): 4.5 meq/L | LDH (6 h): 239 IU/L | Na (6 h): 141 meq/L | PL (6 h): 141.6 mg/dL | RALB (6 h): 3.1 g/dL | TBIL (6 h): 0.026 mg/dL | TC (6 h): 75.4 mg/dL | TG (6 h): 42.4 mg/dL | TP (6 h): 5.5 g/dL | gamma-GTP (6 h): 1.2 IU/L | TERMINAL_BW (9 h): 205.5 g | APTT (9 h): 20.8 s | Bas (9 h): 0% | Eos (9 h): 0.8% | Fbg (9 h): 351 mg/dL | Hb (9 h): 13.6 g/dL | Ht (9 h): 40.1% | Lym (9 h): 69.2% | MCH (9 h): 21.4 pg | MCHC (9 h): 33.9% | MCV (9 h): 63.3 fL | Mono (9 h): 2.6% | Neu (9 h): 27.4% | PT (9 h): 15.8 s | Plat (9 h): 124.5 x10_4/uL | RBC (9 h): 633.8 x10_4/ul | Ret (9 h): 7.8% | WBC (9 h): 68.7 x10_2/uL | KIDNEY_L (9 h): 0.9 g | KIDNEY_R (9 h): 1 g | KIDNEY_TOTAL (9 h): 1.9 g | LIVER (9 h): 9.1 g | A/G (9 h): 1.2 | ALP (9 h): 1633.4 IU/L | ALT (9 h): 41 IU/L | AST (9 h): 76.6 IU/L | BUN (9 h): 11.4 mg/dL | CRE (9 h): 0.1 mg/dL | Ca (9 h): 10.4 mg/dL | Cl (9 h): 108.6 meq/L | DBIL (9 h): 0.018 mg/dL | GLC (9 h): 196.6 mg/dL | IP (9 h): 9.9 mg/dL | K (9 h): 4.3 meq/L | LDH (9 h): 223.6 IU/L | Na (9 h): 142.2 meq/L | PL (9 h): 142 mg/dL | RALB (9 h): 3.1 g/dL | TBIL (9 h): 0.034 mg/dL | TC (9 h): 74.8 mg/dL | TG (9 h): 49.4 mg/dL | TP (9 h): 5.7 g/dL | gamma-GTP (9 h): 1.2 IU/L | TERMINAL_BW (24 h): 215.6 g | APTT (24 h): 19.4 s | Bas (24 h): 0% | Eos (24 h): 0.8% | Fbg (24 h): 300.6 mg/dL | Hb (24 h): 13.4 g/dL | Ht (24 h): 38.6% | Lym (24 h): 76.4% | MCH (24 h): 22.1 pg | MCHC (24 h): 34.7% | MCV (24 h): 63.6 fL | Mono (24 h): 2% | Neu (24 h): 20% | PT (24 h): 15.8 s | Plat (24 h): 140.3 x10_4/uL | RBC (24 h): 607.2 x10_4/ul | Ret (24 h): 8.2% | WBC (24 h): 111.6 x10_2/uL | KIDNEY_L (24 h): 1 g | KIDNEY_R (24 h): 1 g | KIDNEY_TOTAL (24 h): 1.9 g | LIVER (24 h): 10.4 g | A/G (24 h): 1.2 | ALP (24 h): 1455.6 IU/L | ALT (24 h): 44.8 IU/L | AST (24 h): 73.4 IU/L | BUN (24 h): 18 mg/dL | CRE (24 h): 0.1 mg/dL | Ca (24 h): 11.1 mg/dL | Cl (24 h): 106.4 meq/L | DBIL (24 h): 0 mg/dL | GLC (24 h): 176.8 mg/dL | IP (24 h): 8.6 mg/dL | K (24 h): 4.1 meq/L | LDH (24 h): 241 IU/L | Na (24 h): 142 meq/L | PL (24 h): 149.8 mg/dL | RALB (24 h): 3 g/dL | TBIL (24 h): 0.006 mg/dL | TC (24 h): 77 mg/dL | TG (24 h): 100.6 mg/dL | TP (24 h): 5.6 g/dL | gamma-GTP (24 h): 1 IU/L
